Laboratory results published in patent publication US11472766B2, “Lipid nanoparticle composition” (Suzhou Abogen Biosciences Co., Ltd., priority 2020, dated 2022).

Assays:
[1] = test system: human erythropoietin (hEPO) mRNA; test: Animal study: hEPO expression after tail vein injection of LNPs encapsulating hEPO mRNA (serum ELISA); format: in vivo; details: hEPO level, female ICR mice, 0.5 mg/kg, 6 hours post administration; for Expression at 6 h (μg/ml): class symbols, Table 3; for Expression at 6 h: Table 2
In short: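 Female ICR mice (6-8 weeks) received LNPs carrying hEPO mRNA by tail vein injection at 0.5 mg/kg, with MC3 LNPs dosed the same way as positive control. Blood was drawn at set times (e.g., 6 h) and serum separated. hEPO was quantified by ELISA and reported as μg/ml.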

[2] = Apparent pKa of LNP formulations (TNS fluorescence assay); details: LNP cationic lipid/DSPC/cholesterol/DMG-PEG 50/10/38.5/1.5 mol %
[3] = Lipid nanoparticle size by dynamic light scattering (Malvern Zetasizer Nano ZS); format: physicochemical; details: LNP: cationic lipid/DSPC/cholesterol/PEG-lipid 50:10:38.5:1.5, hEPO mRNA
In short: (§1)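 Ribogreen fluorescence quantifies encapsulated mRNA and backscatter (173°) DLS sizes the particles. These are microfluidically mixed four-component LNPs in DPBS after dialysis.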

[4] = Encapsulation efficiency of lipid nanoparticles (Quant-it Ribogreen RNA quantification assay); format: physicochemical; details: LNP encapsulating hEPO mRNA
In short: as §1

Row | SMILES | Expression at 6 h (μg/ml) [1] | Apparant Pka ([2]; Table 3) | polydispersity ([3]; Table 3) | size nm ([3]; Table 3) [nm] | Encapsulation Efficiency ([4]; Table 3) [%] | Expression at 6 h [1] [µg/mL] | Apparant Pka ([2]; Table 2) | polydispersity ([3]; Table 2) | size nm ([3]; Table 2) [nm] | Encapsulation Efficiency ([4]; Table 2) [%]
1 | CCCCCCCCC(CCCCCC)CC(=O)NCCCCCN(CCCCCNC(=O)CC(CCCCCC)CCCCCCCC)CCN(CCO)C1CC1 (centres unmarked) [Compound 113] | A (≥2) | 6.728 | 0.04 | 90 | 91.2 | – | – | – | – | –
2 | CCCCCCCCC(CCCCCC)COC(=O)CCCCCN(CCCCCC(=O)OCC(CCCCCC)CCCCCCCC)CCN(CCC)C1CC(O)C1 (centres unmarked) [Compound 60] | B (≥1 and <2) | 6.329 | 0.086 | 68.6 | 92.1 | – | – | – | – | –
3 | CCCCCCCCC(CCCCCC)CNC(=O)CCCCCN(CCCCCC(=O)NCC(CCCCCC)CCCCCCCC)CCN(CCO)C1CC1 (centres unmarked) [Compound 110] | C (≥0.1 and <1) | 6.696 | 0.063 | 91.1 | 90.0 | – | – | – | – | –
4 | CCCCCCCCC(CCCCCC)COC(=O)CCCCCN(CCCCCC(=O)OCC(CCCCCC)CCCCCCCC)CCN(CC(C)O)C1CCC1 (centres unmarked) [Compound 32] | C (≥0.1 and <1) | 5.941 | 0.039 | 77.76 | 94.3 | – | – | – | – | –
5 | CCCCCCCCC(CCCCCC)COC(=O)CCCCCN(CCCCCC(=O)OCC(CCCCCC)CCCCCCCC)C(=O)CCN(CCO)C1CCC1 (centres unmarked) [Compound 12] | D (<0.1) | 5.801 | 0.015 | 75.86 | 99.80 | – | – | – | – | –
6 | CCCCCCCCC(CCCCCC)COC(=O)CCCCCN(CCCCCC(=O)OCC(CCCCCC)CCCCCCCC)CCN(CCO)c1ccccc1 (centres unmarked) [Compound 7] | – | – | – | – | – | 0.00 | 5.39 | 0.110 | 149.1 | 47.0
7 | CCCCCCCCC(CCCCCC)CC(=O)COCCCCN(CCCCCOC(=O)CC(CCCCCC)CCCCCCCC)CCN(CCO)C1CCCC1 (centres unmarked) [Compound 25] | A (≥2) | 6.334 | 0.032 | 74.3 | 96.7 | – | – | – | – | –
8 | CCCCCCCCC(CCCCCC)COC(=O)CCCCCN(CCCCCC(=O)OCC(CCCCCC)CCCCCCCC)C(=O)CN(CCO)C1CCC1 (centres unmarked) [Compound 11] | D (<0.1) | 5.662 | 0.109 | 67.23 | 90.9 | – | – | – | – | –
9 | CCCCCCCCCCCOC(=O)CCCCCN(CCCCCC(=O)OCC(CCCCCCCC)CCCCCCCC)CCN(CCO)C1CCCCC1 [Compound 83] | B (≥1 and <2) | 6.328 | 0.087 | 67.62 | 93.5 | – | – | – | – | –
10 | CCCCCCCCC(CCCCCC)COC(=O)CCCCCN(CCCCCC(=O)OCC(CCCCCC)CCCCCCCC)CCN(CCO)C1CCCCCCC1 (centres unmarked) [Compound 6] | – | – | – | – | – | 0.00 | 5.88 | 0.109 | 60.5 | 96.6
